Source: US9265774B2, “Methods, compounds and pharmaceutical compositions for treating anxiety and mood disorders” (New York University, priority 2011, dated 2016)
Like-named read-outs stand apart in the source and are kept apart here.

Legend:
[1] = test system: home cage exploration in handling-stressed mice; assay: Home cage activity after handling and injection stress; assay type: in vivo
Procedure: FIG. 15 depicts the effect of acute i.p. dp6FNE (1 mg/kg) or cirazoline (0.1 mg/kg), (N=1), on home cage activity in terms of rearing and ambulation, Veh (N=12).
6FNE has a more rapid and/or greater antidepressant effect than either of these agonists because 6FNE is the only known selective α-agonist that has full efficacy at all brain α-adrenoceptors and 6FNE works within minutes (Stone, et al. 2011) whereas cirazoline was given to mice over several months prior to testing in one model (forced swim test) in the above experiment by Doze et al, 2009. […] (Stone, E A, Lin Y, Quartermain, D, Unpublished results)
It is known that peripheral administration of α1-agonists without phentolamine impairs exploratory behavior in the open field (Yang, et al., J Pharmacol exp Ther 1990; 255: 1064-1070).

[2] = test system: locomotor behavior in an open field; assay: Open field locomotor behavior after ivt. 6FNE or i.p. dp6FNE versus amphetamine; assay type: in vivo, mice
Procedure: 6FNE and dp6FNe were tested for their effects on motor activity by measuring locomotor behavior in an open field after either ivt. (6FNE) or i.p. injection (dp6fNE) in mice. These mice were compared to animals that were either non handled or received either a vehicle ivt injection or an i.p. injection of the stimulant, amphetamine (5 mg/kg). The results are shown in FIG. 6 and in (Stone, Lin Y, Sarfraz Y, and Quartermain D, 2011). […] Furthermore, the increase in activity after 6FNE was minor in comparison with the bona fide stimulant, amphetamine which produced a 10 fold increase. The small increase over the vehicle group therefore appears to be the result of a reduction of the stress caused by the handling and restraint for the ivt. injection which is in agreement with the reduced activation of brain stress circuits discussed above. This interpretation was supported by an examination of the time in the center or risky area of the field spent by the various groups. […] A slight reduction in motor behavior at the low doses (0.1-0.3 mg/kg) were, however, observed.

[3] = test system: model of chronic depression in mice (repeated forced swim); conditions: for acute antidepressant (anti-immobility) effect in the RFS: single acute i.p. administration minutes before the swim, low doses, prazosin 0.2 mg/kg present
Excerpt: We administered the pro-drugs shortly before one or more tests of antidepressant activity including reversal of immobility during tail suspension and forced swimming and attenuation of anhedonia produced by endotoxin administration. […] (Stone et al., Eur. J. Pharmacol. (2001) 420: 97-102) Because dp6FNE like all other antidepressants has an initial anorexic effect and acutely reduces the consumption of sweet solutions, in the test for anhedonia it was necessary to employ a non-nutritive hedonic behavior, FUST (sniffing of estrous female urine). […] (Stone et al., Neuropsychopharmacology (2011) 14: 319-331); Sun et al., J. Neurosci. Methods (2003) 126:35-40; Sun et al., Behavioral Pharmacology (2008) 19: 334-338).
Mice were swum for 15 min/d on 4 d and tested for the response to acute i.p dp6FNE (1 or 3 mg/kg) alone or in combination with 8-OHDPAT (0.05 mg/kg) and corticosterone (3 mg/kg) on the 5th and final swim (15 min after drug administration). […] Comparison groups receiving currently available antidepressants were treated acutely i.p. or chronically (14 d osmotic pumps) with either desmethylimipramine (DMI) (10 mg/kg), fluoxetine (5 mg/kg), escitalopram (5 mg/kg), bupropion (10 mg/kg) or ketamine (10 mg/kg).
Although corticosteroids are well known to produce depression (Gourley et al., Biol Psychiatry (2008) 64: 884-890), this occurs at high doses only. […] Mice were swum for 3 d and given either vehicle (0.8% ethanol) or corticosterone (12.5 μg/ml) in their drinking water.
As described in Example 4a, the cocktail was tested in a mouse model of chronic depression (RFS).

[4] = prazosin: at 0.2 mg/kg in mice; cited from earlier work
[5] = test system: immobility in tail suspension test; assay: Tail suspension test (TST); assay type: in vivo, mice; conditions: intracerebral administration
Procedure: (§1) In the RFS study, mice were subjected to 4 daily 15 min swims as described above and were injected i.p. with either vehicle or dp6FNE (3 mg/kg) 15 min prior to the 5th swim. In the TST study, animals were injected similarly before a 6 min test. […] The animals were anesthetized and perfused for immuno-histochemistry 70 min after the start of the swim or tail suspension. Brains were processed as described previously for double-label immunofluorescent Fos/tyrosine hydroxylase staining of all sections through the LC and for single-label Fos staining through the full PVH (Stone et al., Brain Res (2009) 1291: 21-31).
To determine if dp6FNE was active in a more traditional test of antidepressant activity, it was given as above 15 min prior to a tail suspension test.
(§2) The first test involves an acute stress-induced model of depression (Steru, et al., Psychopharmacology 1985; 85: 367-370) whereas the second, a more prolonged, chronic depression that is more akin to chronic human depression (Stone, et al., Pharmacol Biochem Behav 2008; 91: 190-195).

[6] = test system: repeated open-space swim model; assay: Repeated open-space (forced) swim test; assay type: in vivo, mice; conditions: for antidepressant activity in the repeated open-space forced swim test: intracerebral administration
Excerpt: as §2

PVH Fos expression = assay: Fos expression in the PVH, RFS model, corticosterone in the drinking water; assay type: in vivo, mice; conditions: versus veh
Excerpt: (§3) GR agonists such as corticosterone and dexamethasone are well known to produce selective inhibition of the neural activity of parvocellular PVH neurons at low doses (Keller-Wood et al., Endo Rev (1982) 5: 1-24; Dallman et al., Ann N Y Acad Sci 91987) 512: 402-414). This effect was shown in a previous experiment on the effects of corticosterone in the drinking water on Fos expression in the PVH or piriform cortex of mice subjected to the RFS model (Stone et al., eur J Pharmacol (2007) In Press). The animals were swum a total of 3 times and on the night prior to the 3rd swim given corticosterone at 12.5, 25 or 50 μg/ml in the drinking water. These concentrations produced nighttime intakes of 4.6, 10.7 and 14.2 mg/kg. The mice were given the 3rd and final swim the following morning, 0800-1000 h, and were anesthetized and perfused 70 min after the start of the swim for immunohistochemical assay of Fos in the PVH and in the piriform cortex, a control region that supports positively motivated behavior (Carr et al., Neuropsychopharmacology (2010) 35: 752-763; Stone et al., Neurosci Biobehav Revs (2008a) 32: 508-524).

[7] = test system: open field behavior (locomotion and center square occupancy); assay: Open field motor activity and anxiety after capture and injection; assay type: in vivo, mice; conditions: corticosterone 12.5 μg/ml in drinking water (4.6 mg/kg)
Procedure: To determine if the agonists had motor stimulating or sedative actions, mice were allowed to explore an open field undisturbed for 60 min and were then captured and injected i.p. with either vehicle or the full “cocktail” of the 3 […] (dp6FNE 1 mg/kg; 8-OHDPAT, 0.05 mg/kg; corticosterone, 3 mg/kg, praz, 0.2 mg/kg) before being replaced in the field for a final 15 min. The vehicle injection (praz present) reduced subsequent locomotion and time spent in the center of the field by −76.8±11.0% and −78.5±12.4%, respectively, from preceding levels, indicating an anxiogenic effect of the injection procedure. The injection of the “cocktail”, however, rescued both locomotion and center time to −12.9±1.9% and −25.3±6.9%, respectively, indicating a strong anti-anxiety effect with no motor stimulation or sedation (FIG. 9).
In addition to its antidepressant property, the cocktail is also effective in producing a significant antianxiety effect without sedation in these animals. The applicants have tested for this effect using an open field in which animals are placed and permitted to explore freely after which they are captured, restrained briefly for an ip. injection of saline and returned to the field for a final 15 min. […]

[8] = test system: Fos expression in the piriform cortex; assay: Fos expression in the piriform cortex, RFS model, corticosterone in the drinking water; assay type: in vivo, mice; conditions: versus veh
Excerpt: as §3

Fos expression in the LC = Fos expression in the LC during the RFS model; assay type: in vivo, mice; conditions: prazosin 0.2 mg/kg; vehicle animals compared with previous results without prazosin
Procedure: as §1, with “21-31). […] In the tail suspended mice the analogous reductions were 53.5±7.2% (LC) and 36.7±3.1 (PVH). […] These findings thus indicate that a dose of […] dp6FNE that has preferential inhibitory effects on the LC during depression exists.” for “21-31).”

[9] = oral; cited from earlier work
[10] = corticosterone 25 μg/ml in drinking water, nighttime intake 10.7 mg/kg
[11] = corticosterone 50 μg/ml in drinking water, nighttime intake 14.2 mg/kg
[12] = corticosterone 12.5 μg/ml in drinking water, nighttime intake 4.6 mg/kg, mice swum for 3 d, versus vehicle

c1ccc(C2CC2)c(OCC2=NCCN2)c1 [cirazoline]
effect by itself on movement and motor behavior in the home cage ([1]; cirazoline i.p., unpublished results): pronounced inhibition of movement and motor behavior
behavioral inhibition in the home cage following handling and injection stress ([1]; i.p., dp6FNE (1 mg/kg) in the presence of phentolamine, cirazoline (0.1 mg/kg)): not effective in reducing behavioral inhibition

CC(N)Cc1ccccc1 (stereo not drawn) [amphetamine]
increase in activity in the open field ([2]; amphetamine 5 mg/kg i.p.): 10 fold

CNC1(c2ccccc2Cl)CCCCC1=O (stereo not drawn) [ketamine]
acute antidepressant (anti-immobility) effect in the RFS [3]: None of the currently available antidepressants that were tested, including ketamine, appeared acutely effective

NCC(O)c1cc(O)c(O)cc1F (stereo not drawn) [6FNE, 6-fluoronorepinephrine]
time in the center of the field ([2]; 6FNE ivt. or dp6FNE i.p.): restored this behavior back to the level of the non-handled controls
effect on motor activity in the open field ([2]; mouse, in vivo, ip): no change in activity compared to the non-handled animals
passage of the blood brain barrier [4]: does not pass the blood brain barrier
antidepressant activity in the tail suspension test [5]: equally effective
antidepressant activity in the repeated open-space forced swim test [6]: effective

C[C@]12C[C@H](O)[C@H]3[C@@H](CCC4=CC(=O)CC[C@@]43C)[C@@H]1CC[C@@H]2C(=O)CO [corticosterone]
reduction of PVH Fos expression (PVH Fos expression; corticosterone 12.5 μg/ml in drinking water, nighttime intake 4.6 mg/kg, 70 min after start of 3rd swim): −51.7±17%
reduction of PVH Fos expression (PVH Fos expression; [10]): −66.8±8.5%
reduction of PVH Fos expression (PVH Fos expression; [11]): −63.7±11.0%
increase of distance swum [3, 12]: +107.7±15.8%
reduction in immobility [3, 12]: −36.6±5.7%
acute antidepressant (anti-immobility) effect in the RFS [3]: rapid and effective preclinical antidepressant actions
acute antidepressant (anti-immobility) effect in the RFS ([3]; listed as corticosteroid): immediate and effective antidepressant action
open field locomotion [7]: No effect
increase of Fos expression in the piriform cortex ([8]; corticosterone 12.5 μg/ml in drinking water, nighttime intake 4.6 mg/kg): +203.3±78.6%
increase of Fos expression in the piriform cortex [8, 10]: +175.3±53.9%
increase of Fos expression in the piriform cortex [8, 11]: +193.3±67.4%

COc1cc2nc(N3CCN(C(=O)c4ccco4)CC3)nc(N)c2cc1OC [prazosin]
effect of the antagonist on LC or PVH Fos (Fos expression in the LC): no effect
effect of receptor blockade on the antidepressant actions of dp6FNE in the RFS ([3]; high dose systemic prazosin or α2-antagonist atipamezole given with dp6FNE): significantly reversed the antidepressant actions of pro-drug in the RFS

CCC1(c2cnc[nH]2)Cc2ccccc2C1 [atipamezole]
effect of receptor blockade on the antidepressant actions of dp6FNE in the RFS ([3]; mouse, in vivo): significantly reversed the antidepressant actions of pro-drug in the RFS

C[C@@H]1C[C@H]2[C@@H]3CCC4=CC(=O)C=C[C@]4(C)[C@@]3(F)[C@@H](O)C[C@]2(C)[C@@]1(O)C(=O)COP(=O)(O)O [dexamethasone sodium phosphate]
bioavailability [9]: approximately 0.5

CNCCCN1c2ccccc2CCc2ccccc21 [DMI, desmethylimipramine]
acute effect in the repeated open-space swim test ([6]; acute i.p., dp6FNE at 1, 3 and 10 mg/kg given along with phentolamine 5 mg/kg i.p.): complete lack of effect

Cc1cccc([C@H](C)c2cnc[nH]2)c1C [dexmedetomidine]
antidepressant activity in the tail suspension test [5]: equally effective
antidepressant activity in the repeated open-space forced swim test [6]: only 6FNE was effective
